Test results from patent publication EP2057185B1, “POLYMYXIN DERIVATIVES AND USES THEREOF” (Northern Antibiotics Oy, priority 2006, dated 2008).
Bridge positions count the residues as written; N and C are the ends. Square brackets hold non-standard residues; d marks the D form. Peptide text beside a SMILES is read from it. * marks the point of attachment. Octanoyl = CCCCCCCC(=O)*; Dab = NCC[C@H](N)C(=O)O; Abu = CC[C@H](N)C(=O)O

How the values were obtained:
A. baumannii ATCC 19606 = experiment: Growth inhibition around wells on LB plates containing rifampin (sensitization); format: cell-based, Acinetobacter baumannii; conditions: well containing 4 µg
E. coli ATCC25922 = test system: E. coli ATCC25922
Procedure: (§1) MICs were determined by using E-strips (Biodisk Ltd., Solna, Sweden) according to the manufacturer's instructions.
(§2) The strains originated from ATCC (11 strains), CCUG (11 strains), and NCTC (The National Collection of Type Cultures, Colindale, U.K.; 2 strains). Eight strains (the F-strains) were purchased from Mobidiag Ltd., Helsinki, Finland.

E. coli CCUG41422 = experiment: MIC by E-strips on Mueller-Hinton agar with or without NAB7061 (4 µg/ml); format: cell-based, Escherichia coli
Procedure: as §1, §2

E. coli CCUG41424 = experiment: as above; format: cell-based, Escherichia coli
Procedure: as §1, §2

E. coli CCUG41425 = experiment: as above; format: cell-based, Escherichia coli
Procedure: as §1, §2

E. coli CCUG41432 = experiment: as above; format: cell-based, Escherichia coli
Procedure: as §1, §2

E. coli NCTC13351 = experiment: as above; format: cell-based, Escherichia coli
Procedure: as §1, §2

K. pneumoniae CCUG45421 [1] = experiment: as above; format: cell-based, Klebsiella pneumoniae
Procedure: as §1, §2

K. pneumoniae F136 = experiment: as above; format: cell-based, Klebsiella pneumoniae
Procedure: as §1, §2

K. pneumoniae F144 = experiment: as above; format: cell-based, Klebsiella pneumoniae
Procedure: as §1, §2

K. pneumoniae F145 = experiment: as above; format: cell-based, Klebsiella pneumoniae
Procedure: as §1, §2

[2] = test system: carbapenem-resistant strains (F263, F264); experiment: E-strip MIC of carbapenems, summary over resistant strains; format: cell-based, Acinetobacter baumannii; conditions: NAB7061 4 µg/ml
Procedure: as §1

E. coli IH3080 (K1:O18) = experiment: Experimental E. coli peritonitis model in mice; format: in vivo; conditions: peritoneal fluid; 5 mg/kg body weight subcutaneous at 1 h; […] after the treatment
Procedure: A suspension of E. coli IH3080 (K1:O18) in saline (0.9% NaCl) was prepared from an overnight culture on a blood agar plate (Statens Serum Institut, Copenhagen, Denmark). All mice (female NMR1 from Harlan Scandinavia, Aller⌀d, Denmark; weight, 25-30 g) were inoculated intraperitoneally with 0.5 ml of the suspension containing 0.96 x 10^6 CFU per ml in the lateral lower quadrant of the abdomen. At 1 h, the CFU count was determined from three mice and the remaining mice (four mice per group) were treated with a subcutaneous injection of 0.2 ml of erythromycin solution in saline (corresponding to 5 mg/kg body weight) or NAB7061 solution in saline (corresponding to 5 mg/kg body weight), or both erythromycin and NAB7061 (corresponding to 5 mg/kg body weight of both drugs; given at two separate sites). Control group received two 0.2 ml injections of saline. At 4.5 h postinfection, all mice were anaesthetized with CO2 and sacrificed. Sterile saline (2 ml) was injected intraperitoneally and the abdomen was gently massaged before it was opened and the fluid sampled. Appropriate dilutions of the fluid were plated on blood agar plates, the plates were incubated overnight, and the colonies were counted.

K. pneumoniae ATCC13883 = experiment: Growth inhibition around wells on LB agar plates; format: cell-based, Klebsiella pneumoniae; conditions: growth inhibition area around well
Procedure: (§3) From an overnight-grown culture of IH3080 on LB agar, a suspension of approx. 10^8 cells/ml was prepared in 0.9% NaCl. Aliquots of this suspension were then pipetted on the agar plates and the plates were gently shaken to spread the suspension evenly on the entire surface of the plate. Thereafter, the unabsorbed part of the suspension was removed by using a Pasteur pipette. After the surface had dried, small wells (diameter, 2 mm) were drilled on the plates (five wells per plate) by using a sterile sharp-edged narrow metal tube, single-use pipette tip, and vacuum suction. Samples (4 µl and 10 µl) of the peptide solution in 0.9% NaCl (at concentrations of 1 µg/ml and 0.1 µg/ml) were then pipetted to the wells and the sample fluids were allowed to absorb. Controls included 0.9% NaCl solution without the compound to be tested. The plates were then incubated for 18 h at 37°C whereafter the diameters of growth inhibition zones around each well were measured; the diameter of the well itself was […]. Finally, the diameters were converted to surface areas of growth inhibition (in square mm).
(§4) The susceptibility of eleven Gram-negative bacterial strains (nine different species) to NAB734 and polymyxin B was compared by using the susceptibility determination method described in Example 2. The strains included those belonging to the species of Serratia marcescens and Proteus mirabilis, both species generally known to be resistant to polymyxin. Furthermore, the susceptibility determination was also performed by using the Gram-positive bacterium, Staphylococcus aureus, also generally known to be polymyxin-resistant. Ten of the strains originated from ATCC (American Type Culture Collection, Manassas, VA, U.S.A.), and one from CCUG (Culture Collection of University of Gothenburg, Sweden). The source of E. coli IH3080 has been described in Example 2. Polymyxin B sulfate was from Sigma-Aldrich (St. Louis, MO, USA).

K. pneumoniae CCUG45421 [3] = experiment: Growth inhibition around wells on LB agar plates; format: cell-based, Klebsiella pneumoniae; conditions: growth inhibition area around well
Procedure: as §3, §4

E. cloacae ATCC23355 = experiment: Growth inhibition around wells on LB agar plates; format: cell-based, Enterobacter cloacae; conditions: growth inhibition area around well
Procedure: as §3
The susceptibility of eleven Gram-negative bacterial strains (nine different species) to NAB734 and polymyxin B was compared by using the susceptibility determination method described in Example 2. […]

Molecule: CCCCCCCC(=O)N[C@H](C(=O)N[C@@H](CC)C(=O)N[C@H]1CCNC(=O)[C@H]([C@@H](C)O)NC(=O)[C@H](CCN)NC(=O)[C@H](CCN)NC(=O)[C@H](CC(C)C)NC(=O)[C@@H](Cc2ccccc2)NC(=O)[C@H](CCN)NC1=O)[C@@H](C)O [NAB 7061, OA-Thr-Abu-cy[Dab-Dab-DPhe-Leu-Dab-Dab-Thr-]] (Octanoyl-T[Abu][Dab][Dab][dF]L[Dab][Dab]T; lactam 3-C)
- Antibacterial activity, rifampin 0 (A. baumannii ATCC 19606; no rifampin (control)): 0 square millimeters
- Antibacterial activity, rifampin 0.1 (A. baumannii ATCC 19606; rifampin 0.1 µg/ml): 28 square millimeters
- Antibacterial activity, rifampin 0.3 (A. baumannii ATCC 19606; rifampin 0.3 µg/ml): 50 square millimeters
- MIC (µg/ml) of clarithromycin in the presence of 4 µg/ml of NAB 7061 (E. coli ATCC25922): 0,094 - 0,125 µg/ml
- MIC (µg/ml) of rifampin in the presence of 4 µg/ml of NAB 7061 (E. coli ATCC25922): 0,01 - 0,047 µg/ml
- sensitization factor to both carbapenems (imipenem, meropenem) [2]: ≥ 4
- CFU counts (per ml) at 4.5 h postinfection (E. coli IH3080 (K1:O18)): 1.1 (± 0.6) x 10^6 per ml

Molecule: Polymyxin B
- Antibacterial activity 4 µg (K. pneumoniae ATCC13883; 4 µg): 79 square millimeters
- Antibacterial activity 10 µg (K. pneumoniae ATCC13883; 10 µg): 113 square millimeters
- Antibacterial activity 4 µg (K. pneumoniae CCUG45421 [3]; 4 µg): 95 square millimeters
- Antibacterial activity 10 µg (K. pneumoniae CCUG45421 [3]; 10 µg): 133 square millimeters
- Antibacterial activity 4 µg (E. cloacae ATCC23355; 4 µg): 95 square millimeters
- Antibacterial activity 10 µg (E. cloacae ATCC23355; 10 µg): 143 square millimeters
